Data reported in US20130217765A1, “MULTIFUNCTIONAL NANOCONJUGATES AND USES THEREOF” (priority 2012, published 2013).

Key:
emerin = experiment: Emerin integrity and distribution in HeLa cells, fluorescence confocal microscopy; type: cell-based; conditions: regardless of light treatment
Description: (§1) HeLa cells were grown on #1 glass coverslips to approximately 20% confluence and then exposed to ARS-coated TiO2 nanoparticles or appropriate controls overnight. Respective samples were either exposed to no light or light with a Fiber-Lite MI-150 High Intensity Fiber Optic 150 W Halogen Light Illuminator for 10 min. All samples were fixed in 3.6% formaldehyde (Fisher Scientific, Waltham, Mass., USA) and permeabilized in 0.2% Triton-100× (Fisher Scientific) for 10 min. Cells were then stained with either a mouse monoclonal to emerin primary antibody (Abcam, Cambridge, Mass., USA) followed by an Alexa488 goat anti-mouse IgG (H+L) secondary antibody (Invitrogen, Grand Island, N.Y., USA) or a chicken polyclonal to lamin B1 primary antibody (Abcam) followed by an Alexa488 goat anti-chicken IgG (H+L) secondary antibody (Invitrogen). All samples were then stained with Hoechst 33342 (Sigma) and coverslips were mounted in P-phenylenediamine containing mounting media. Samples were imaged on an Olympus IX81-UCB Spinning Disc Confocal Microscope (Olympus, Center Valley, Pa., USA) using a 100 W mercury burner (Ushio, Tokyo, Japan), Brightline filters for DAPI, FITC, and TEXAS RED (Semrock, Rochester, N.Y., USA), and an ORCA-ER-1394 high-resolution digital camera (Hamamatsu, Japan). All images are presented as […] optical slice fluorescence overlays in either two or three dimensions. […]

lamin B1 = experiment: Lamin B1 integrity and distribution in HeLa cells, fluorescence confocal microscopy; type: cell-based; conditions: light or no light
Description: as §1

plasmid DNA = experiment: Plasmid DNA nicking by agarose gel electrophoresis after light exposure; type: biochemical; conditions: visible light, 150 W halogen bulb, 10 min
Description: The effect of visible light activated ARS-coated TiO2 nanoparticles was assessed by illuminating plasmid containing samples with a Fiber-Lite MI-150High Intensity Fiber Optic EKE 150 W21VHalogen Light Illuminator (Dolan-Jenner Industries, Boxborough, Mass., USA) for 10 min. […] All samples were then run on a 1.25% agarose gel at 60V for 4 h, stained with GelStar (Lonza, Mapleton, Ill., USA), and imaged on a Kodak Gel Logic 2200 Imaging System (Kodak, Rochester, N.Y., USA).
Considering these factors, we sought to determine the effect of visible light activated ARS-coated TiO2 nanoparticles on plasmid DNA integrity using a standard agarose gel electrophoresis technique developed by others. According to this assay, nicked (single-stranded DNA break), linear (double-stranded DNA break), and supercoiled (undamaged) plasmid DNA can be distinguished on an agarose gel by viewing differences in mobility (with the nicked plasmid DNA migrating at the slowest rate and supercoiled plasmid DNA migrating at the fastest rate) [13,15]. Samples were prepared that contained plasmid DNA and either (1) dH2O, (2) ARS, (3) TiO2 nanoparticles, or (4) ARS-coated TiO2 nanoparticles. […]

[1] = system: kanamycin-resistant E. coli; experiment: Bacterial assay: incubation with samples, halogen light, plating on kanamycin LB agar; type: cell-based; conditions: incubated 10 minutes, 150 W halogen bulb 10 minutes, plated overnight at 37° C.
Description: When using dye-coated TiO2 nanoconjugates to inflict damage on bacteria, the dye alizarin red s was used (FIG. 24). The following protocol was used: a bacterial culture of kanamycin-resistant E. coli was grown overnight at 37° C. at 250 rpm and then stored at 4° C. for later use in the experiment. Aliquots of the starter bacterial culture were then incubated with either (1) dH2O, (2) alizarin red s, (3) 6 nm TiO2 nanoparticles, or (4) alizarin red s-coated-6 nm TiO2 nanoconjugates for 10 minutes. All samples were then exposed to a 150 W halogen bulb for 10 minutes and plated on kanamycin-containing LB agar plates, incubated overnight at 37° C., and photographed with a digital camera.

HeLa cells = experiment: Duration of light exposure on HeLa cells treated with dye-modified TiO2 nanoparticles; type: cell-based; conditions: dark or 30 minutes of 750 W halogen visible light, fixed 24 hours post exposure
Description: In this Example, we tested the duration of light exposure on cells treated with dye-modified TiO2 nanoparticles. […] Cells were fixed in 4% formaldehyde 24 hours post exposure and 1 μm slices fluorescence confocal images are presented. […] The cellular response is heterogeneous.

Row | Molecule | emerin integrity and distribution (emerin) | lamin B1 integrity and distribution (lamin B1) | nicking of plasmid DNA (plasmid DNA) | bacterial growth (colonies on plate) [1] | cellular responses (HeLa cells)
1 | O=C1c2ccccc2C(=O)c2c1cc(S(=O)(=O)[O-])c(O)c2O.[Na+] [ARS, alizarin red s] | normal emerin integrity and distribution | normal lamin B1 integrity and distribution | slight expected increase in nicked plasmid DNA | bacterial colonies are witnessed | 
2 | alizarin blue black b [ABBB] |  |  |  |  | no detectable cellular responses
